One test relates to Staphylococcus aureus. As to the kind of experiment: Antibacterial activity against Staphylococcus aureus CMCC(B)26003 by agar dilution method. The format is functional. (In general: In agar dilution, organisms are placed on agar that contains the substance at set levels.)
Another test relates to Fusarium graminearum. Description: Antifungal activity against Gibberella zeae at 50 ug/ml. It is filed as functional.
A further test relates to Escherichia coli. Description: Antibacterial activity against Escherichia coli CMCC(B)44102 by agar dilution method. The format is functional.
The test system of a further test is Alternaria solani. As to the kind of experiment: Antifungal activity against Alternaria solani at 50 ug/ml. It is filed as functional.
For test [1], the system named is Rhizoctonia solani. Description: Antifungal activity against Rhizoctonia solani at 50 ug/ml. It is filed as functional.
A further test relates to Botrytis cinerea. As to the kind of experiment: Antifungal activity against Botrytis cinerea at 50 ug/ml. The format is functional.
The test system of test [2] is Rhizoctonia solani. Description: Antifungal activity against Rhizoctonia solani assessed as protective effect at 400 ug/ml. It is filed as functional. Particulars: dose 400 µg/ml.
The test system of test [3] is Rhizoctonia solani. As to the kind of experiment: Antifungal activity against Rhizoctonia solani. The format is functional, organism-based.
Test [4] concerns the target DNA topoisomerase II (Homo sapiens) (UniProt P11388+Q02880). As to the kind of experiment: Inhibition of DNA topoisomerase II (unknown origin). It is filed as protein assay.

Converted amounts (≈) assume the structure as drawn.

Consider `CC(C)c1ccc2c(c1)CC[C@H]1[C@@](CNC(=O)c3ccccn3)(Cc3cccc(C(F)(F)F)c3)CCC[C@]21C`, for which the MIC – broadly, the least concentration at which growth counts as inhibited – in the test with Staphylococcus aureus was above 128 µg/mL; with Escherichia coli, 64 µg/mL (≈ 120 µM). The inhibition – broadly, how much of the control response was suppressed – at 50 µg/mL with Fusarium graminearum turned out to be 0%; in the test on Alternaria solani, 1%; with Rhizoctonia solani [1], 8.2%; in the test on Botrytis cinerea it was 0%.

Turning to `CC(C)c1ccc2c(c1)CC[C@H]1[C@@](CNC(=O)c3ccccn3)(Cc3cccc(C#N)c3)CCC[C@]21C`, the MIC was above 128 µg/mL against Staphylococcus aureus and 32 µg/mL (≈ 65.1 µM) in the test with Escherichia coli. Further, the inhibition at 50 µg/mL with Fusarium graminearum was 4.5%; in the test on Alternaria solani, 3%; in the test on Rhizoctonia solani [1], 5.8%; in the test with Botrytis cinerea, 6.3%.

With `COc1cccc(C[C@@]2(CNC(=O)c3ccccn3)CCC[C@]3(C)c4ccc(C(C)C)cc4CC[C@@H]23)c1`, the MIC against Staphylococcus aureus is 16 µg/mL (≈ 32.2 µM); with Escherichia coli, 8 µg/mL (≈ 16.1 µM). For the same compound, the inhibition at 50 µg/mL in the test on Fusarium graminearum amounted to 0%; with Alternaria solani it was 0%; in the test with Rhizoctonia solani [1], 5.2%; in the test on Botrytis cinerea, 3.7%.

Take `OCC1=C[C@H](N[C@H]2C[C@H](CO)[C@@H](O[C@@H]3O[C@H](CO)[C@@H](O)[C@H](O)[C@H]3O)[C@H](O)[C@H]2O)[C@H](O)[C@@H](O)[C@@H]1O` [VALIDAMYCIN]: the Activity in the test with Rhizoctonia solani [2] came to 83.1%.

For the compound `Cc1ccc(C[C@@]2(CNC(=O)c3ccccn3)CCC[C@]3(C)c4ccc(C(C)C)cc4CC[C@@H]23)cc1C`, the MIC in the test with Staphylococcus aureus is above 128 µg/mL; in the test on Escherichia coli it was 64 µg/mL (≈ 129 µM). Besides, the inhibition at 50 µg/mL in the test on Fusarium graminearum amounted to 0%; in the test on Alternaria solani, 4.1%; in the test with Rhizoctonia solani [1], 7.4%; in the test with Botrytis cinerea, 15.2%.

With `CC(C)c1ccc2c(c1)CC[C@H]1[C@@](CNC(=O)c3ccccn3)(Cc3ccccc3C#N)CCC[C@]21C`, the values for the MIC against Staphylococcus aureus and in the test on Escherichia coli were above 128 µg/mL and 64 µg/mL (≈ 130 µM), respectively. Further, the inhibition at 50 µg/mL came to 0% in the test with Fusarium graminearum, 0% with Alternaria solani, 29.3% with Rhizoctonia solani [1] and 23.2% in the test with Botrytis cinerea.

`CCOC(=O)c1ccc(C[C@@]2(CNC(=O)c3ccccn3)CCC[C@]3(C)c4ccc(C(C)C)cc4CC[C@@H]23)cc1`: the MIC against Staphylococcus aureus is above 128 µg/mL; with Escherichia coli, 32 µg/mL (≈ 59.4 µM). In addition, the inhibition at 50 µg/mL in the test on Fusarium graminearum worked out at 14.1%; in the test on Alternaria solani, 1.2%; with Rhizoctonia solani [1] it was 0%; with Botrytis cinerea, 0%.

Turning to `CC(C)c1ccc2c(c1)CC[C@H]1[C@@](CNC(=O)c3ccccn3)(Cc3ccc(C#N)cc3)CCC[C@]21C`, the MIC with Staphylococcus aureus is above 128 µg/mL; in the test with Escherichia coli it was 64 µg/mL (≈ 130 µM). The inhibition at 50 µg/mL worked out at 0% in the test with Fusarium graminearum, 5.5% in the test with Alternaria solani, 28.5% in the test with Rhizoctonia solani [1] and 30.6% with Botrytis cinerea.

On to `CC(C)c1ccc2c(c1)CC[C@H]1[C@@](CNC(=O)c3ccccn3)(Cc3ccccc3)CCC[C@]21C`, for which the MIC is above 128 µg/mL in the test with Staphylococcus aureus and 32 µg/mL (≈ 68.6 µM) against Escherichia coli. In addition, the inhibition at 50 µg/mL in the test with Fusarium graminearum came to 3.8%; with Alternaria solani it was 2.5%; in the test on Rhizoctonia solani [1], 1.9%; with Botrytis cinerea, 12.4%.

For the compound `CC(C)c1ccc2c(c1)CC[C@H]1[C@@](CNC(=O)c3ccccn3)(Cc3ccc(Br)cc3)CCC[C@]21C`, the MIC against Staphylococcus aureus was 32 µg/mL (≈ 58.7 µM); in the test with Escherichia coli it was 4 µg/mL (≈ 7.33 µM). The inhibition at 50 µg/mL stood at 0% with Fusarium graminearum, 1.1% with Alternaria solani, 25.2% in the test with Rhizoctonia solani [1] and 20.1% in the test with Botrytis cinerea.

In the case of `CC(C)c1ccc2c(c1)CC[C@H]1[C@@](CN)(Cc3ccc(C(C)(C)C)cc3)CCC[C@]21C`, the MIC is above 128 µg/mL in the test with Staphylococcus aureus and 16 µg/mL (≈ 38.3 µM) in the test on Escherichia coli. For the same compound, the inhibition at 50 µg/mL in the test with Fusarium graminearum worked out at 3.6%; in the test on Alternaria solani it was 7.9%; with Rhizoctonia solani [1], 65%; with Botrytis cinerea it was 32.4%.

Take `CC(C)c1ccc2c(c1)CC[C@H]1[C@@](CN)(Cc3ccc(C(F)(F)F)cc3)CCC[C@]21C`: the results for the MIC against Staphylococcus aureus and in the test on Escherichia coli were above 128 µg/mL and 16 µg/mL (≈ 37.2 µM), respectively. The inhibition at 50 µg/mL with Fusarium graminearum is 25.5%; in the test with Alternaria solani, 11.6%; with Rhizoctonia solani [1] it was 38.6%; in the test on Botrytis cinerea, 36.2%.

Consider `CC(C)c1ccc2c(c1)CC[C@H]1[C@@](CNC(=O)c3ccccn3)(Cc3ccc(F)cc3)CCC[C@]21C`, for which the figures for the MIC with Staphylococcus aureus and against Escherichia coli were 32 µg/mL (≈ 66 µM) and 4 µg/mL (≈ 8.25 µM), respectively. Further, the inhibition at 50 µg/mL came to 0% with Fusarium graminearum, 1.7% in the test on Alternaria solani, 1.2% in the test on Rhizoctonia solani [1] and 0% in the test with Botrytis cinerea.

For the compound `COc1ccccc1C[C@@]1(CNC(=O)c2ccccn2)CCC[C@]2(C)c3ccc(C(C)C)cc3CC[C@@H]12`, the MIC against Staphylococcus aureus is above 128 µg/mL; in the test on Escherichia coli it was 32 µg/mL (≈ 64.4 µM). The inhibition at 50 µg/mL in the test with Fusarium graminearum came to 0%; with Alternaria solani it was 3%; with Rhizoctonia solani [1], 46.2%; in the test on Botrytis cinerea, 20.6%.

Regarding `CC(C)c1ccc2c(c1)CC[C@H]1[C@@](CNC(=O)c3ccccn3)(Cc3ccc(C(F)(F)F)cc3)CCC[C@]21C`, the MIC in the test with Staphylococcus aureus and against Escherichia coli was 64 µg/mL (≈ 120 µM) in each case. Further, the inhibition at 50 µg/mL in the test with Fusarium graminearum was determined as 0%; with Alternaria solani, 1.7%; with Rhizoctonia solani [1] it was 16.3%; in the test with Botrytis cinerea, 1.1%.

With `CC(C)c1ccc2c(c1)CC[C@H]1[C@@](CNC(=O)c3ccccn3)(Cc3ccc(C(C)(C)C)cc3)CCC[C@]21C`, the MIC against Staphylococcus aureus is above 128 µg/mL; in the test with Escherichia coli, 8 µg/mL (≈ 15.3 µM). For the same compound, the inhibition at 50 µg/mL came to 22.1% in the test with Fusarium graminearum, 31.6% in the test with Alternaria solani, 65.4% in the test on Rhizoctonia solani [1] and 38.4% in the test with Botrytis cinerea.

As for `O=C(Nc1ccccc1-c1ccc(Cl)cc1)c1cccnc1Cl` [BOSCALID], the inhibition at 50 µg/mL in the test with Fusarium graminearum came out at 32%; with Alternaria solani, 49.5%; in the test on Rhizoctonia solani [1], 80.2%; in the test with Botrytis cinerea, 90.1%. In addition, the EC50 – broadly, the concentration that produces a half-maximal response – with Rhizoctonia solani [3] amounted to 1.57 µg/mL (≈ 4.57 µM).

As for `CC(C)c1ccc2c(c1)CC[C@H]1[C@@](CNC(=O)c3ccccn3)(Cc3ccc(Cl)cc3)CCC[C@]21C`, the results for the MIC against Staphylococcus aureus and in the test with Escherichia coli were 8 µg/mL (≈ 16 µM) and 32 µg/mL (≈ 63.9 µM), respectively. The inhibition at 50 µg/mL is 45.7% with Fusarium graminearum, 35% in the test with Alternaria solani, 55.3% in the test with Rhizoctonia solani [1] and 51.3% with Botrytis cinerea.

On to `CC(C)c1ccc2c(c1)CC[C@H]1[C@@](CNC(=O)c3ccccn3)(Cc3ccc(N)cc3)CCC[C@]21C`, for which the MIC against Staphylococcus aureus and against Escherichia coli was 32 µg/mL (≈ 66.4 µM) each time. Also, the inhibition at 50 µg/mL is 3.5% with Fusarium graminearum, 4% in the test on Alternaria solani, 28.5% with Rhizoctonia solani [1] and 5.6% with Botrytis cinerea.

As to `COc1ccc(C[C@@]2(CNC(=O)c3ccccn3)CCC[C@]3(C)c4ccc(C(C)C)cc4CC[C@@H]23)cc1`, the MIC against Staphylococcus aureus was above 128 µg/mL; in the test on Escherichia coli, 64 µg/mL (≈ 129 µM). Moreover, the inhibition at 50 µg/mL in the test with Fusarium graminearum came out at 4.5%; with Alternaria solani it was 4.9%; with Rhizoctonia solani [1], 48.6%; in the test with Botrytis cinerea it was 22.2%.

As for `O=C(O)c1cn(C2CC2)c2cc(N3CCNCC3)c(F)cc2c1=O` [CIPROFLOXACIN], the MIC in the test with Staphylococcus aureus is above 128 µg/mL. In addition, the INH in test [4] is 1.11 ng/mL.

With `CC(C)c1ccc2c(c1)CC[C@H]1[C@@](CNC(=O)c3ccccn3)(Cc3ccc(OC(F)(F)F)cc3)CCC[C@]21C`, the MIC in the test with Staphylococcus aureus is above 128 µg/mL; in the test on Escherichia coli, 64 µg/mL (≈ 116 µM). Also, the inhibition at 50 µg/mL with Fusarium graminearum came to 1.6%; in the test on Alternaria solani it was 0%; in the test on Rhizoctonia solani [1], 26.1%; in the test with Botrytis cinerea, 0.9%.

Turning to `COc1ccccc1C[C@@]1(CN)CCC[C@]2(C)c3ccc(C(C)C)cc3CC[C@@H]12`, the values for the minimal inhibitory concentration (MIC) in the test on Staphylococcus aureus and with Escherichia coli were above 128 µg/mL and 32 µg/mL (≈ 81.7 µM), respectively. Moreover, the inhibition at 50 µg/mL with Fusarium graminearum worked out at 24.8%; in the test with Alternaria solani, 16.9%; in the test on Rhizoctonia solani [1], 44.5%; in the test with Botrytis cinerea, 51.4%.

For `CN[C@H](CC(C)C)C(=O)N[C@H]1C(=O)N[C@@H](CC(N)=O)C(=O)N[C@H]2C(=O)N[C@H]3C(=O)N[C@H](C(=O)N[C@H](C(=O)O)c4cc(O)cc(O)c4-c4cc3ccc4O)[C@H](O)c3ccc(c(Cl)c3)Oc3cc2cc(c3O[C@@H]2O[C@H](CO)[C@@H](O)[C@H](O)[C@H]2O[C@H]2C[C@](C)(N)[C@H](O)[C@H](C)O2)Oc2ccc(cc2Cl)[C@H]1O` [VANCOMYCIN], in the test on Escherichia coli, inhibition of growth (MIC) required 128 µg/mL (≈ 88.3 µM).

Turning to `CC(C)c1ccc2c(c1)CC[C@H]1[C@@](CN)(Cc3ccc(Cl)cc3)CCC[C@]21C`, the MIC amounted to 8 µg/mL (≈ 20.2 µM) with Staphylococcus aureus and 0.125 µg/mL (≈ 0.316 µM) against Escherichia coli. The inhibition at 50 µg/mL in the test with Fusarium graminearum is 25.9%; in the test with Alternaria solani, 20.2%; with Rhizoctonia solani [1], 80.6%; in the test with Botrytis cinerea, 47.3%. Also, it took 7.86 µg/mL (≈ 19.9 µM) to reach a half-maximal effect in the test on Rhizoctonia solani [3] (EC50). The same compound yielded an INH in [4] of 0.76 ng/mL.

For the origin of these results see ChEMBL document CHEMBL5385946, “Discovery of Dehydroabietylamine Derivatives as Antibacterial and Antifungal Agents” (J Nat Prod, 2024).
